Laboratory results taken from PubChem BioAssay (NCI).
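At the GI50, growth is halved. TGI: total growth inhibition.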

Columns and labels:
Experiment in all cases: DTP human tumour cell line panel, 384-well format
COLO 205 colon = system: COLO 205 colon
HOP-92 NSCLC = system: HOP-92 NSCLC
HL-60(TB) leukemia = system: HL-60(TB) leukemia
UACC-62 melanoma = system: UACC-62 melanoma
OVCAR-4 ovarian = system: OVCAR-4 ovarian
HCC-2998 colon = system: HCC-2998 colon
HCT-116 colon = system: HCT-116 colon
HT29 colon = system: HT29 colon
NCI-H460 NSCLC = system: NCI-H460 NSCLC
ACHN renal = system: ACHN renal
MCF7 breast = system: MCF7 breast
SN12C renal = system: SN12C renal
RPMI-8226 leukemia = system: RPMI-8226 leukemia
SF-295 CNS = system: SF-295 CNS
SK-MEL-5 melanoma = system: SK-MEL-5 melanoma
SNB-19 CNS = system: SNB-19 CNS
MALME-3M melanoma = system: MALME-3M melanoma
U251 glioblastoma = system: U251 glioblastoma
SK-OV-3 ovarian = system: SK-OV-3 ovarian
NCI-H226 lung = system: NCI-H226 lung
MDA-MB-435 melanoma = system: MDA-MB-435 melanoma
NCI-H522 lung = system: NCI-H522 lung
BT-549 breast = system: BT-549 breast
A549 NSCLC = system: A549 NSCLC
NCI-H23 lung = system: NCI-H23 lung
SK-MEL-28 melanoma = system: SK-MEL-28 melanoma
NCI-H322M lung = system: NCI-H322M lung
T-47D breast = system: T-47D breast
EKVX NSCLC = system: EKVX NSCLC
OVCAR-5 ovarian = system: OVCAR-5 ovarian
M14 melanoma = system: M14 melanoma
LOX IMVI melanoma = system: LOX IMVI melanoma
MDA-MB-231 breast = system: MDA-MB-231 breast
TK-10 renal = system: TK-10 renal
OVCAR-8 ovarian = system: OVCAR-8 ovarian
OVCAR-3 ovarian = system: OVCAR-3 ovarian
MDA-MB-468 breast = system: MDA-MB-468 breast
MOLT-4 leukemia = system: MOLT-4 leukemia
SR leukemia = system: SR leukemia
SNB-75 CNS = system: SNB-75 CNS
KM12 colon = system: KM12 colon
IGROV1 ovarian = system: IGROV1 ovarian
DU-145 prostate = system: DU-145 prostate
HCT-15 colon = system: HCT-15 colon
UACC-257 melanoma = system: UACC-257 melanoma
SF-539 CNS = system: SF-539 CNS
HS 578T breast = system: HS 578T breast
SF-268 CNS = system: SF-268 CNS
RXF 393 renal = system: RXF 393 renal
NCI/ADR-RES ovarian = system: NCI/ADR-RES ovarian
HOP-62 NSCLC = system: HOP-62 NSCLC
A498 renal = system: A498 renal
PC-3 prostate = system: PC-3 prostate
CAKI-1 renal = system: CAKI-1 renal

`CC(C)(C)Cn1c(N)nc2ccc(-c3[nH]c(C(C)(C)C)nc3-c3ccc(F)cc3)nc21` gave a GI50 (COLO 205 colon) of 16 µM, a TGI (COLO 205 colon) of 29.5 µM and a GI50 (HOP-92 NSCLC) of 10.2 µM. It also gave a TGI (HOP-92 NSCLC) of 22 µM, a GI50 (HL-60(TB) leukemia) of 3.78 µM and a TGI (HL-60(TB) leukemia) of 10.4 µM. For the same compound, the GI50 (UACC-62 melanoma) was 10.7 µM, the TGI (UACC-62 melanoma) was 22.7 µM and the GI50 (OVCAR-4 ovarian) was 7.46 µM. The TGI (OVCAR-4 ovarian) was 20.3 µM, the GI50 (HCC-2998 colon) was 3.6 µM and the TGI (HCC-2998 colon) was 14.4 µM. For the same compound, the GI50 (HCT-116 colon) was 6.38 µM, the TGI (HCT-116 colon) was 18.9 µM and the GI50 (HT29 colon) was 2.33 µM. It also gave a TGI (HT29 colon) of 6.39 µM, a GI50 (NCI-H460 NSCLC) of 4.3 µM and a TGI (NCI-H460 NSCLC) of 16.2 µM. The GI50 (ACHN renal) was 1.9 µM, the TGI (ACHN renal) was 12.3 µM and the GI50 (MCF7 breast) was 6.64 µM. For the same compound, the TGI (MCF7 breast) was 19.3 µM, the GI50 (SN12C renal) was 1.8 µM and the TGI (SN12C renal) was 14.7 µM. It also gave a GI50 (RPMI-8226 leukemia) of 2 µM, a TGI (RPMI-8226 leukemia) of 5.4 µM and a GI50 (SF-295 CNS) of 10.6 µM. It also gave a TGI (SF-295 CNS) of 22.6 µM, a GI50 (SK-MEL-5 melanoma) of 3.7 µM and a TGI (SK-MEL-5 melanoma) of 15.7 µM. The GI50 (SNB-19 CNS) was 11.9 µM, the TGI (SNB-19 CNS) was 24.3 µM and the GI50 (MALME-3M melanoma) was 4.26 µM. For the same compound, the TGI (MALME-3M melanoma) was 16.7 µM, the GI50 (U251 glioblastoma) was 6.13 µM and the TGI (U251 glioblastoma) was 18.6 µM. The GI50 (SK-OV-3 ovarian) was 8.25 µM, the TGI (SK-OV-3 ovarian) was 21 µM and the GI50 (NCI-H226 lung) was 13.1 µM. The TGI (NCI-H226 lung) was 25.8 µM, the GI50 (MDA-MB-435 melanoma) was 13.4 µM and the TGI (MDA-MB-435 melanoma) was 26.3 µM. The GI50 (NCI-H522 lung) was 5.97 µM, the TGI (NCI-H522 lung) was 18.9 µM and the GI50 (BT-549 breast) was 12 µM. It also gave a TGI (BT-549 breast) of 24.5 µM, a GI50 (A549 NSCLC) of 9.53 µM and a TGI (A549 NSCLC) of 21.7 µM. The GI50 (NCI-H23 lung) was 11.5 µM, the TGI (NCI-H23 lung) was 23.9 µM and the GI50 (SK-MEL-28 melanoma) was 12.6 µM. It also gave a TGI (SK-MEL-28 melanoma) of 25.3 µM, a GI50 (NCI-H322M lung) of 4.97 µM and a TGI (NCI-H322M lung) of 17.7 µM. It also gave a GI50 (T-47D breast) of 9.88 µM, a TGI (T-47D breast) of 21.6 µM and a GI50 (EKVX NSCLC) of 2.74 µM. The TGI (EKVX NSCLC) was 15.4 µM, the GI50 (OVCAR-5 ovarian) was 3.37 µM and the TGI (OVCAR-5 ovarian) was 13 µM. It also gave a GI50 (M14 melanoma) of 12.9 µM, a TGI (M14 melanoma) of 25.6 µM and a GI50 (LOX IMVI melanoma) of 13.5 µM. The TGI (LOX IMVI melanoma) was 26.3 µM, the GI50 (MDA-MB-231 breast) was 11.7 µM and the TGI (MDA-MB-231 breast) was 24.1 µM. The GI50 (TK-10 renal) was 3.02 µM, the TGI (TK-10 renal) was 14.6 µM and the GI50 (OVCAR-8 ovarian) was 9.78 µM. The TGI (OVCAR-8 ovarian) was 21.8 µM, the GI50 (OVCAR-3 ovarian) was 9.69 µM and the TGI (OVCAR-3 ovarian) was 21.5 µM. The GI50 (MDA-MB-468 breast) was 2.93 µM, the TGI (MDA-MB-468 breast) was 15.5 µM and the GI50 (MOLT-4 leukemia) was 7.35 µM. It also gave a TGI (MOLT-4 leukemia) of 19.5 µM, a GI50 (SR leukemia) of 2.63 µM and a TGI (SR leukemia) of 13.5 µM. The GI50 (SNB-75 CNS) was 13.5 µM, the TGI (SNB-75 CNS) was 26.5 µM and the GI50 (KM12 colon) was 5.24 µM. It also gave a TGI (KM12 colon) of 17.4 µM, a GI50 (IGROV1 ovarian) of 2.57 µM and a TGI (IGROV1 ovarian) of 12.4 µM. It also gave a GI50 (DU-145 prostate) of 9.61 µM, a TGI (DU-145 prostate) of 21.6 µM and a GI50 (HCT-15 colon) of 2.16 µM. The TGI (HCT-15 colon) was 4.75 µM, the GI50 (UACC-257 melanoma) was 2.92 µM and the TGI (UACC-257 melanoma) was 7.71 µM. The GI50 (SF-539 CNS) was 11.9 µM, the TGI (SF-539 CNS) was 24.4 µM and the GI50 (HS 578T breast) was 11.4 µM. For the same compound, the TGI (HS 578T breast) was 23.6 µM, the GI50 (SF-268 CNS) was 11.8 µM and the TGI (SF-268 CNS) was 24.3 µM. The GI50 (RXF 393 renal) was 12.9 µM, the TGI (RXF 393 renal) was 25.6 µM and the GI50 (NCI/ADR-RES ovarian) was 3.76 µM. The TGI (NCI/ADR-RES ovarian) was 17.4 µM, the GI50 (HOP-62 NSCLC) was 11.4 µM and the TGI (HOP-62 NSCLC) was 23.7 µM. It also gave a GI50 (A498 renal) of 4.54 µM, a TGI (A498 renal) of 18.6 µM and a GI50 (PC-3 prostate) of 10.2 µM. The TGI (PC-3 prostate) was 22.1 µM, the GI50 (CAKI-1 renal) was 6.13 µM and the TGI (CAKI-1 renal) was 19.9 µM.
